Results taken from PubChem BioAssay (NCI).
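All cell lines were grown in 96-well plates and treated with compound for 48 hours. GI50 marks 50% less growth. TGI marks complete inhibition of growth.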

Columns and labels:
Test in all cases: inhibition of tumour cell growth, NCI panel, 48 h
[1] = system: HCT-116 colon
[2] = system: UO-31 renal
[3] = system: SF-295 CNS
[4] = system: 786-0 renal
[5] = system: OVCAR-8 ovarian
[6] = system: SK-MEL-2 melanoma
[7] = system: HCT-15 colon
[8] = system: OVCAR-4 ovarian
[9] = system: HT29 colon
[10] = system: ACHN renal

SMILES | TGI [1] [µM] | TGI [2] [µM] | TGI [3] [µM] | TGI [4] [µM] | TGI [5] [µM] | TGI [6] [µM] | TGI [7] [µM] | TGI [8] [µM] | TGI [9] [µM] | TGI [10] [µM] | GI50 [1] [µM] | GI50 [2] [µM] | GI50 [3] [µM] | GI50 [4] [µM] | GI50 [5] [µM] | GI50 [6] [µM] | GI50 [7] [µM] | GI50 [8] [µM] | GI50 [9] [µM] | GI50 [10] [µM]
CCOC(=O)CC(=O)ON(C)C(C)=O | > 100 | > 100 | > 100 | > 100 | > 100 | > 100 | > 100 | > 100 | > 100 | > 100 | – | – | – | – | – | – | – | – | – | –
c1ccc(COc2cccc3ccc[n+](Cc4ccccc4)c23)cc1 | – | 75.2 | 37.9 | 84.6 | – | 20.3 | > 100 | 45.7 | > 100 | 52.7 | – | – | – | – | – | – | – | – | – | –
C[C@@H]1CCC2[C@@H](C)[C@@H](OCC(CO[C@H]3OC4O[C@@]5(C)CC[C@H]6[C@H](C)CCC([C@H]3C)[C@@]46OO5)OC(=O)CCC(=O)O)OC3O[C@@]4(C)CC[C@@H]1[C@]32OO4 (some centres undefined) | 14.6 | > 46 | 15.8 | 17.3 | 27.2 | > 51.6 | 12.8 | 26.3 | > 34.9 | 17.5 | < 0.01 | 1.57 | 0.0335 | < 0.0151 | 0.511 | 4.22 | < 0.01 | 0.0583 | < 0.01 | 0.126
C=C1NC(=O)C(C(C)CC)NC(=O)C2CSCC(NC(=O)CCC(=O)O)C(=O)NC(Cc3ccccc3)C(=O)NC(C)C(=O)NC(CC(C)CC)C(=O)NC(C(=O)NC(Cc3ccccc3)C(=O)N3CCCC3C(=O)N2)C(C)OC(=O)C(CO)NC(=O)C(C(O)COC)N(C)C(=O)C(C(C)C)NC(=O)C(CC(C)CC)NC1=O (centres undefined) | > 6 | > 6 | > 6 | > 6 | > 6 | > 6 | > 6 | > 6 | > 6 | > 6 | 0.0137 | 0.567 | 0.00594 | 0.0358 | 0.0678 | 0.00485 | 0.0183 | 0.339 | 0.0165 | 0.0553
Cc1cc(/C=C/c2ccc3cc(N(C)C)ccc3[n+]2C)c(C)n1-c1ccccc1 | 2.69 | 4.3 | 0.409 | 1.53 | 0.76 | 1.06 | 6.3 | 5.23 | 2.52 | 1.74 | 0.0908 | 0.748 | 0.11 | 0.262 | 0.143 | 0.27 | 1.31 | 0.0723 | 0.133 | 0.596
COc1ncnc(NS(=O)(=O)c2ccc(N=C3C(=O)N(CN4CCN(c5c(F)cc6c(=O)c(C(=O)O)cn(C7CC7)c6c5OC)CC4C)c4ccc(Cl)cc43)cc2)c1OC (centres undefined) | > 50 | > 50 | > 50 | > 50 | > 50 | > 50 | 23 | > 50 | > 50 | 20.6 | 11.5 | 32.7 | 10.7 | 21.4 | 14 | 35.2 | 7.48 | 37.7 | 18.4 | 7.17
CCCCCCCCC/C=C1\CCC(CN2CCOCC2)C1=O (centres undefined) | 4.04 | 14.9 | 20 | 9.69 | 3.13 | 14.6 | 7.05 | 12 | 8.7 | 16.5 | – | – | – | – | – | – | – | – | – | –
N=Nc1c(OC(=O)Nc2cccc(Cl)c2)[nH]c2ccccc12 | 14.1 | 13.1 | 5.99 | 18.2 | 20 | 24.4 | 18.9 | 19.6 | 17.7 | 20.3 | – | – | – | – | – | – | – | – | – | –
CCN1CCN(c2nc(C)cc(N(CCNc3ccnc4cc(Cl)ccc34)Cc3ccc4c(c3)OCO4)n2)CC1 | 3.51 | 2.72 | 3.38 | 3.08 | 7.9 | 3.85 | 3.26 | 11.4 | 4.83 | 5.26 | 1.38 | 1.36 | 1.76 | 1.54 | 2.69 | 1.98 | 1.46 | 2.58 | 1.83 | 2.26
CCN(CC)c1ccc(-c2cc(-c3cc(OC)c(OC)c(OC)c3)nc(N3CCOCC3)c2C#N)cc1 | 21.1 | > 100 | 3.98 | 9.94 | > 100 | > 26.2 | > 66.6 | > 100 | 8.87 | > 100 | 0.457 | 2.99 | 0.809 | 1.9 | 1.91 | 3.15 | 0.584 | 7.33 | 0.532 | 1.22
CCN1c2ccccc2C(C(SC)S(=O)(=O)c2ccc(C)cc2)c2c1[nH]c(=O)n(C)c2=O (centres undefined) | > 100 | > 100 | > 100 | > 100 | > 100 | > 100 | > 100 | > 100 | > 100 | – | – | – | – | – | – | – | – | – | – | –
CC(C)OP(=O)(OC(C)C)C(=NCCN=C(NNc1ccc([N+](=O)[O-])cc1)P(=O)(OC(C)C)OC(C)C)NNc1ccc([N+](=O)[O-])cc1 | > 100 | > 100 | – | > 100 | > 100 | 53 | > 100 | > 100 | – | 66.5 | – | – | – | – | – | – | – | – | – | –
CC(=O)[C@@]12O[C@@H]1CC1C3CCC4=CC(O)CCC4(C)C3CCC12C (some centres undefined) | > 100 | > 100 | 56.5 | > 100 | 82.3 | > 100 | > 100 | > 100 | > 100 | > 100 | 31.7 | > 100 | 12.2 | > 100 | 23.3 | > 100 | 33.1 | 23.2 | 47.9 | 44.9
O=c1c2sccc2n(CC2COc3ccccc3O2)c(=O)n1O (centres undefined) | 29.2 | 97.5 | > 100 | > 100 | > 100 | 80.7 | > 100 | 98.7 | > 100 | > 100 | 6.54 | 16 | 9.51 | 41.7 | 30.5 | 23.5 | 4.53 | 13.9 | 24.1 | 20.5
COc1cc(C2c3cc4c(cc3OC(C)(O)C2C)OCO4)cc(OC)c1OC (centres undefined) | 75.2 | 81.5 | – | > 100 | > 100 | – | > 100 | – | > 100 | > 100 | – | – | – | – | – | – | – | – | – | –
C[Si](C)(C)C1(Sc2ccccc2)SCCCS1 | > 100 | 39.8 | > 100 | > 100 | > 100 | > 100 | > 100 | > 100 | > 100 | > 100 | – | – | – | – | – | – | – | – | – | –

SMILES | TGI [1] [µM] | TGI [2] [µM] | TGI [3] [µM] | TGI [4] [µM] | TGI [5] [µM] | TGI [6] [µM] | TGI [7] [µM] | TGI [8] [µM] | TGI [9] [µM] | TGI [10] [µM] | GI50 [1] [µM] | GI50 [2] [µM] | GI50 [3] [µM] | GI50 [4] [µM] | GI50 [5] [µM] | GI50 [6] [µM] | GI50 [7] [µM] | GI50 [8] [µM] | GI50 [9] [µM] | GI50 [10] [µM]
[Cl-].[La+3].[O-]/N=C(\c1ccccc1)c1ccccn1.[O-]/N=C(\c1ccccc1)c1ccccn1.[O-]/N=C(\c1ccccc1)c1ccccn1 | > 100 | > 80.8 | > 100 | > 100 | > 100 | > 100 | > 100 | – | > 100 | – | 44 | 30.2 | 27.7 | 36 | 46 | 37.1 | 30.8 | – | 50.4 | –
COc1ccc(S(=O)(=O)NNS(C)(=O)=O)cc1 | > 100 | > 100 | > 100 | > 100 | > 100 | > 100 | – | > 100 | > 100 | > 100 | – | – | – | – | – | – | – | – | – | –
CC1(C)C2CCC(=O)C1CC2 (centres undefined) | > 100 | > 100 | > 100 | > 100 | > 100 | > 100 | > 100 | – | > 100 | > 100 | – | – | – | – | – | – | – | – | – | –
O=C(/C=C/c1ccc(Cl)cc1)c1ccc(Nc2ccnc3cc(Cl)ccc23)cc1 | – | > 100 | > 48.8 | > 100 | > 100 | > 100 | > 100 | > 100 | > 100 | > 100 | – | > 74.7 | – | 38.1 | > 100 | > 100 | 23.7 | > 100 | 1.07 | > 100
CC(=O)/C(=C\c1cccc([N+](=O)[O-])c1)C(=O)Nc1ccccc1C | > 100 | > 100 | > 100 | > 100 | – | > 100 | > 100 | > 100 | > 100 | > 100 | – | – | – | – | – | – | – | – | – | –
COc1cccc(-c2nc(-c3ccc(NC(=O)C(C)C)cc3)[nH]c2-c2ccnc(Br)c2)c1 | 7.8 | > 100 | 0.759 | > 100 | > 100 | 6.34 | – | > 100 | > 100 | > 100 | 2.49 | 3.2 | 0.273 | 1.3 | 3.61 | 2.3 | – | 3.54 | 3.07 | 2.74
Cc1cc(-c2ccc3nc(C4CCOCC4)n(CCOC(F)(F)F)c3c2)cn(C)c1=O | 14.8 | > 20.7 | – | – | – | 15.5 | 4.23 | – | > 63.1 | – | – | – | 0.748 | 1.03 | 0.952 | 0.988 | – | – | – | –
COc1cc(/C=C2\CN(S(=O)(=O)c3ccccc3)C/C(=C\c3cc(CN4CCCC4)c(O)c(OC)c3)C2=O)cc(CN2CCCC2)c1O | – | 5.31 | 3.64 | 4.32 | > 100 | 5.02 | 7.6 | 3.09 | 1.65 | 4.94 | – | 1.92 | 1.55 | 1.86 | 1.31 | 2.03 | 2.3 | 1.27 | 0.252 | 1.99
O=S1(=O)OCCOS(=O)(=O)C1Br | > 100 | > 100 | > 100 | > 100 | > 100 | > 100 | – | > 100 | > 100 | – | – | – | – | – | – | – | – | – | – | –
COc1ccc([C@H]2[C@@H](F)C(=O)N2c2cc(OC)c(OC)c(OC)c2)cc1F | > 100 | > 100 | > 100 | 15.1 | > 100 | > 100 | > 100 | > 100 | > 100 | – | 0.0325 | 0.171 | 0.0535 | 0.0462 | 0.368 | 0.303 | 0.0664 | 0.966 | 0.134 | –
N#CC(C#N)=CNC(N)=S | > 100 | – | > 100 | > 100 | > 100 | > 100 | > 100 | > 100 | > 100 | > 100 | – | – | – | – | – | – | – | – | – | –
O=c1cc(-c2ccccc2)oc2cc(OCCCOc3ccc4c(=O)cc(-c5ccccc5)oc4c3)ccc12 | > 100 | – | > 100 | > 100 | > 100 | > 100 | > 100 | > 100 | > 100 | > 100 | – | – | – | – | – | – | – | – | – | –
CC(=O)OC1COC(n2ccc3cc(Br)c([N+](=O)[O-])cc32)C(OC(C)=O)C1OC(C)=O (centres undefined) | – | 42.8 | 66.7 | 97.9 | 82.1 | – | > 100 | – | > 100 | > 100 | – | – | – | – | – | – | – | – | – | –
Cn1c2ccccc2c2cc(-c3ccccc3)c3c(c21)C(=O)c1ccccc1C3=O | 36.3 | 35.4 | 74.4 | 35.7 | 68.1 | 43.4 | – | 34.3 | > 100 | – | – | – | – | – | – | – | – | – | – | –
CN(C)c1ccc(/C=C(\NC(=O)c2ccccc2)c2nc3ncncc3[nH]2)cc1 | – | > 100 | > 100 | > 100 | > 100 | > 100 | > 100 | > 100 | > 100 | > 100 | – | – | – | – | – | – | – | – | – | –
Clc1ccc(C(c2ccc(Cl)cc2)c2ccccn2)cc1 | – | 30.5 | 43.4 | 30.6 | 33.8 | 35 | 38 | 70.2 | 30.8 | 45.9 | – | – | – | – | – | – | – | – | – | –
